The test system of the experiment is CEM cells HIV-1 protection, formazan growth assay. Nature of the experiment: NCI AIDS Antiviral Assay. To be noted: for IC50: measured here: growth of uninfected CEM cells. In outline: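 Soluble formazan readout of cell growth; CEM cells ± HIV-1; 5 drug concs. ≥50% protection → retest; ≥50% again = moderately active; reproducible 100% = confirmed active.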

We go through 72 molecules from PubChem BioAssay AID179 (DTP/NCI, 2004).

A word on the EC50: it is the concentration that produces a half-maximal response. What is called IC50 is the midpoint of a concentration-inhibition curve.

Several values for one entry are separate records, joined by “and”; a condition that tells them apart may be missing. Identical values can stand only once. Activity calls are given as the source filed them.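 The calls were made as follows: active = compounds giving half or more protection of infected cells from virus-caused growth loss, again on retest; inactive = the rest.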

On to `Cc1noc2c1N=C(c1cccs1)CC(c1c(Cl)cccc1Cl)C2` (stereo not given), for which the EC50 was over 19.1 µM and the IC50 is over 19.1 µM. Consider `CN(/N=C(\C(=O)O)c1ccccc1)C1=NCCN1`, for which the EC50 is over 200 µM and the 50% inhibitory concentration (IC50) was over 200 µM. As for `COC(O)C(=O)c1c2c(cc3c1CC1(Cc4cc5c(cc4C1)CCC5)C3)CCC2` (stereo not given), the EC50 is over 200 µM and the IC50 was found to be 33.1 µM. For the molecule `O=C1Oc2cc3c(c4cccc1c24)OCN(c1ccccc1)C3`, the EC50 was over 33.1 µM and the IC50 was 24.5 µM. Consider `CCCCCC=C(c1cc(F)c(OC)c(C(=O)OC)c1)c1cc(F)c(OC)c(C(=O)OC)c1`, for which the EC50 is over 200 µM and the 50% inhibitory concentration (IC50) worked out at 115 µM. Regarding `CC1(C)CCC[C@@]2(C)C1CC[C@@]1(CO1)[C@@H]2/C=C\C(C=O)CC=O` (stereo not given in full), the outcome was inactive. Take `CN1CCCCC(C(O)(c2ccccc2)c2ccccc2)C1=O` (stereo not given): the EC50 is over 115 µM and the IC50 came out at 0.363 µM.

For `COc1ccc(CCNCCCC2c3ccccc3-c3ccccc32)cc1OC`, the EC50 was over 87.1 µM and the IC50 came to 4.9 µM. For `CCN(CC)CCOc1ccc(/C(C#N)=C/c2cccc3ccccc23)cc1` the same measures were over 200 µM and 1.78 µM. On the same counts, the results for `Cc1nc2[nH]c(=O)n(OS(=O)(=O)c3ccccc3)c(=O)c2s1` are over 200 µM and 35.5 µM. For `N#C/C=C/c1ccc2ccccc2c1` the same measures were over 40.7 µM and over 40.7 µM. Regarding `CCOC(=O)c1c(O)cc(=O)[nH]c1N1CCOCC1`, the EC50 was over 200 µM and the IC50 was over 200 µM. Regarding `CCN(CC)CCOC(=O)C(Cc1cccc2ccccc12)CC1CCCO1` (stereo not given), the EC50 was over 200 µM and the 50% inhibitory concentration (IC50) was over 100 µM. Turning to `NS(=O)(=O)c1ccc(NC(=O)C2C(=O)C(=O)N(c3ccc(S(N)(=O)=O)cc3)C2=O)cc1` (stereo not given), the result was inactive. Turning to `O=c1c(Cl)nsnc1Cl`, the EC50 is over 490 µM and the IC50 amounted to 28.2 µM. `COC1CCN(N(C)C)O1` (stereo not given): the EC50 is over 200 µM and the IC50 is over 200 µM. As to `COC(=O)Cc1cc(=O)n2c3ccccc3n(C)c2c1C#N`, the EC50 is over 24.5 µM and the IC50 is over 24.5 µM. Consider `C=CCC(C(=O)OCC)C1NCCc2c1[nH]c1ccccc21` (stereo not given), for which the EC50 is over 45.7 µM and the IC50 was over 45.7 µM.

For `S=C1Cc2c(-c3ccc(Br)cc3)cc(-c3ccccc3)nc2-c2ccccc2N1`, the EC50 was over 151 µM and the IC50 is 6.17 µM. `[N-]=[N+]=N/C1=C/CCCCC(=O)C1`: the result was inactive.

For `CC12N=NN(c3ccc([N+](=O)[O-])cc3)C1(O)c1ccccc1C2=O` (stereo not given), the EC50 is over 200 µM and the IC50 is over 200 µM. Regarding `CCc1cccc(CC)c1NC(=O)C1=CNC(C)=C(C(=O)Nc2c(CC)cccc2CC)C1c1ccc(O)c(OC)c1` (stereo not given), the EC50 is over 63.1 µM and the half-inhibitory concentration (IC50) came out at 49 µM. On the same counts, the results for `CCCCCCCCCCCCCCCC(=O)Nc1ccn(C2CCC(COP(=O)(O)OCC3CCC(n4cnc5c(=O)[nH]cnc54)O3)O2)c(=O)n1` (stereo not given) are 0.759 µM and over 100 µM. On the same counts, the results for `Cc1c2ccccc2nc(CCl)[n+]1[O-]` are over 200 µM and 3.24 µM. Regarding `CC1=C(N2CC2)C(=O)c2nc3n(c2C1=O)CCC3O` (stereo not given), the outcome was inactive. On to `CC12O[C@]3([C@H](C(=O)N4CCOC43C)[C@H]1Cl)[C@H]1O[C@H]12` (stereo not given in full), for which the result was inactive. On to `CCOc1ccc(NC(=O)CCc2nnc(SC)o2)cc1`, for which the EC50 was over 162 µM and the IC50 was over 162 µM. Turning to `O=c1cnn(C2OC(CO)C(O)C2O)c(=S)[nH]1` (stereo not given), the EC50 is over 2 µM and the IC50 was 0.182 µM.

In the case of `CC(C)C(=S)N(C)O`, the EC50 was over 18.6 µM and the IC50 was 0.302 µM. For `Cc1ccc(C2(C)CCC(C(C)(C)O)OO2)cc1` (stereo not given), the outcome was inactive.

For `COc1cc(OCc2nc3cc(C(F)(F)F)ccc3nc2-c2ccccc2)cc(OC)c1OC`, the EC50 was over 200 µM and the IC50 was 89.1 µM. As for `COC(=O)c1c[nH]cc1CCCCc1c[nH]cc1C(=O)OC`, the result was inactive. Still for that read-out and setting: as for `CC(C)c1ccc(C(c2ccc(OCC(=O)NCCN(C)C)cc2)c2ccc(C(C)C)cc(=O)c2O)c(O)c(=O)c1`, the entry is “inactive”. Turning to `O=P1(Oc2ccccc2)Nc2cc(Cl)ccc2S1` (stereo not given), the EC50 is over 45.7 µM and the 50% inhibitory concentration (IC50) came to 22.4 µM. Turning to `COC(=O)[C@@H]1COC(C(C)(C)C)N1C(=O)C(c1ccccc1)c1ccccc1` (stereo not given in full), the outcome was inactive.

Take `Cc1nn(C(=O)Cc2ccccc2)c2c1C(c1ccc(N(C)C)cc1)SC(N)=N2` (stereo not given): the EC50 was 55 µM and the IC50 is over 200 µM.

As to `CC(=O)c1c2c(cc3c1CC1(Cc4cc5c(cc4C1)CCCC5)C3)CCCC2`, the EC50 was over 200 µM and the IC50 worked out at 34.7 µM. For `CC(=O)OCC1OC(n2c(-c3ccc(N)cc3)cc(-c3ccco3)c(C#N)c2=O)C(OC(C)=O)C(OC(C)=O)C1OC(C)=O` (stereo not given) the same measures were over 11.7 µM and over 11.7 µM.

For `NC1=N[C@H]2CS[C@@H](CCCCC(=O)ON3C(=O)CCC3=O)[C@H]2N1`, the EC50 is over 589 µM and the IC50 was over 589 µM. Consider `O=C(NNS(=O)(=O)c1ccccc1)c1csc(NC(=S)NC2CCCCC2)n1`, for which the EC50 is over 72.4 µM and the IC50 was 28.8 µM. Consider `O=C1c2c(Br)sc(Br)c2[C@@H](NC(=O)C(F)(F)F)C1Br` (stereo not given in full), for which the EC50 was over 200 µM and the IC50 was determined as 3.8 µM. As to `COC1OC(COC(C)=O)C(OC(C)=O)C(OC(C)=O)C1NC(=O)N(CCCl)N=O` (stereo not given), the EC50 was over 288 µM; the IC50 was 91.2 µM and > 209 µM.

Regarding `N.N.N.N.N.O=[N+]([O-])[O-].[Co+3].[O-][Cl+3]([O-])([O-])[O-]`, the outcome was inactive.

`O=C(Nc1nccs1)c1cc(C2=CC=CC([N+](=O)[O-])C=C2)nc(=S)[nH]1` (stereo not given): the EC50 is over 95.5 µM and the IC50 is over 95.5 µM. Turning to `O/N=C1\CSc2ccccc2C1`, the EC50 was over 200 µM and the IC50 is over 200 µM. Consider `CCC(C)C(=O)c1c(O)c(CC=C(C)C)c2c3c(cc(=O)oc13)C(CC)O2` (stereo not given), for which the EC50 is over 200 µM and the IC50 amounted to 25.1 µM. `O=C(C[n+]1ccc2ccccc2c1)c1ccc(O)c(O)c1`: the outcome was inactive. For the molecule `CCC(C(=O)NNC(=O)c1cc(OC)c(OC)c(OC)c1)c1ccccc1` (stereo not given), the EC50 was over 200 µM and the IC50 was found to be 195 µM. With `CCSC(=O)OCn1ncc2cc([N+](=O)[O-])ccc21`, the EC50 is over 200 µM and the IC50 was 95.5 µM.

Regarding `C=C1CCC(CC[C@@H]2CC[C@]3(OC2)O[C@@]2(O)CC[C@]3(C)OC2(C)C)C(C)(C)[C@H]1C/C=C1/C(=O)OC[C@@H]1O` (stereo not given in full), the result was inactive.

In the case of `CC(=O)Nc1ccc(S(=O)(=O)c2nnc(NC(C)=O)s2)cc1`, the EC50 was over 741 µM and the IC50 was 331 µM. On the same counts, the results for `CC(=O)O[C@H]1CC[C@]2(C)C3CC[C@]4(C)C([C@H](C)CCCC(C)C)CCC4[C@]3(/C=N/O)n3c(=O)n(-c4ccccc4)c(=O)n3[C@]2(/C=N\O)C1` (stereo not given in full) are over 200 µM and 11 µM.

Consider `COCc1cn(C2C=CC(CO)O2)c(=O)[nH]c1=O` (stereo not given), for which the concentration for a half-maximal effect (EC50) was 17.4 µM and the IC50 was determined as 123 µM. Turning to `c1ccc(-c2sc(-c3ccccc3)c3c2C2CCC3C2)cc1`, the EC50 was over 200 µM and the IC50 came out at 36.3 µM. For `O=C(Nc1ccc(F)cc1)C(=O)C(C(=O)c1ccccc1F)C1OC(=O)c2ccccc21` (stereo not given), the EC50 is over 302 µM and the IC50 amounted to 18.2 µM. On the same counts, the results for `N=c1sc(N2CCOCC2)nn1CC(=O)c1ccccc1` are over 200 µM and 129 µM.

As for `COc1ccc(C(=CCC[C@H]2CC[C@@]3(C)[C@@H](CC[C@@H]4[C@@H]3CC[C@]3(C)[C@@H](C(C)CCCC(C)C)CC[C@@H]43)C2)c2ccc(OC)c(C(=O)O)c2)cc1C(=O)O` (stereo not given in full), the EC50 is over 200 µM and the IC50 is over 200 µM.

`COc1ccc(CC(=O)c2ccc(O)cc2O)cc1`: the EC50 is over 200 µM and the IC50 stood at 81.3 µM. Take `CC1=CC(C)(C)N=C2SC(COc3ccccc3)=NN12`: the EC50 is over 200 µM and the IC50 was found to be 34.7 µM.

For the molecule `CCOC(=O)c1c(SCc2cc(=O)[nH]c(=O)[nH]2)n(-c2ccccc2)c(=S)n(-c2ccccc2)c1=O`, the EC50 is 191 µM and the IC50 is over 200 µM. For the molecule `COc1ccc(C2SCC(=O)N2c2ccc(-n3c(-c4ccccc4)nc4ccccc4c3=O)cc2)cc1OC` (stereo not given), the EC50 is over 200 µM and the IC50 is over 200 µM. In the case of `C=C(C)C1CCC2=CC(CC3(C)OC3C3=CC(C(=O)OC)=C(C1)O3)OC2=O` (stereo not given), the EC50 was over 47.9 µM and the half-inhibitory concentration (IC50) was over 47.9 µM. Consider `O=C(NC1C=Nc2ccc([N+](=O)[O-])cc2NC1=O)c1ccc(Cl)cc1` (stereo not given), for which the EC50 was over 200 µM and the half-maximal inhibitory concentration (IC50) was over 200 µM. Regarding `Nc1ccc(/C=C/c2ccc(N=Nc3ccc(/C=C/c4ccc(N)cc4S(=O)(=O)O)c(S(=O)(=O)O)c3)cc2S(=O)(=O)O)c(S(=O)(=O)O)c1`, the EC50 was 9.33 µM and the IC50 amounted to 166 µM. Take `CCOC(=O)/C=C/CC(C)(C)COC(C)=O`: the result was inactive. In the case of `c1ccc(-c2csc3c2-n2cccc2C3N2CCCC2)cc1` (stereo not given), the EC50 is over 200 µM and the IC50 turned out to be 13.5 µM. For `NC1CCC(C(=O)C2CCC(O)CC2O)CC1` (stereo not given), the EC50 is over 200 µM and the IC50 worked out at 18.2 µM. On to `CC(=O)N(C(=O)CC(=O)N1N=C(c2ccccc2)C(N=Nc2ccccc2[N+](=O)[O-])C1=O)c1ccc(Cl)cc1` (stereo not given), for which the EC50 was 166 µM and the IC50 was over 200 µM. For the molecule `CC1=NN2C(=O)C(c3ccccc3)SC2=NC(C)(C)C1` (stereo not given), the EC50 is over 457 µM and the IC50 is over 457 µM.

Take `O=C1NC2C(=CC(O)C(O)C2O)c2cc3c(cc21)OCO3` (stereo not given): the EC50 was over 8.51 µM and the IC50 worked out at 0.174 µM.

On to `CN(N=O)C(N)=NC(=O)c1ccccc1`, for which the EC50 is over 200 µM and the IC50 came to 141 µM. Turning to `CC(C)(C)c1nc2c(o1)C(=Nc1ccc(F)cc1)c1ccccc1C2=O`, the result was inactive.
